Assay results taken from US6960574B2, “Antagonists of RF-amide neuropeptides” (University of Florida, priority 2002, dated 2005).
Square brackets hold non-standard residues; d marks the D form. Peptide text beside a SMILES is read from it. * marks the point of attachment. ξ: configuration not given here. Dansyl = CN(C)c1cccc2c(S(=O)(=O)*)cccc12; ξL = CC(C)CC(N)C(=O)O

Test system: receptor labeled by the radioiodinated analogue of 1 (4, [125I]-YLFQPQRF-NH2); neuropeptide FF receptor
Assay: Competitive radioligand binding against 4 ([125I]Y8F-amide)
Settings: mixture-based positional scanning; difference from averaged radioligand displacement of whole library (0); about 80 a.u. = 10-fold change in Ki

| Compound | Relative Binding Index (RBI) |
| --- | --- |
| CC[C@H](C)[C@H](NS(=O)(=O)c1cccc2c(N(C)C)cccc12)C(=O)N[C@H](C(=O)N[C@@H](CCCNC(=N)N)C(N)=O)[C@@H](C)O [Dansyl-ITR-amide] (Dansyl-Ile-Thr-Arg-NH2) | −6 a.u. |
| CC[C@H](C)[C@H](NS(=O)(=O)c1cccc2c(N(C)C)cccc12)C(=O)N[C@H](C(=O)N[C@@H](CCCNC(=N)N)C(N)=O)C(C)C [Dansyl-IVR-amide] (Dansyl-Ile-Val-Arg-NH2) | −16 a.u. |
| CC[C@H](C)[C@H](NS(=O)(=O)c1cccc2c(N(C)C)cccc12)C(=O)N[C@@H](Cc1c[nH]c2ccccc12)C(=O)N[C@@H](CCCNC(=N)N)C(N)=O [Dansyl-IWR-amide] (Dansyl-Ile-Trp-Arg-NH2) | −2 a.u. |
| CC[C@H](C)[C@H](NS(=O)(=O)c1cccc2c(N(C)C)cccc12)C(=O)N[C@@H](Cc1ccc(O)cc1)C(=O)N[C@@H](CCCNC(=N)N)C(N)=O [Dansyl-IYR-amide] (Dansyl-Ile-Tyr-Arg-NH2) | −12 a.u. |
| C[C@H](NC(=O)[C@H](CCCCN)NS(=O)(=O)c1cccc2c(N(C)C)cccc12)C(=O)N[C@@H](CCCNC(=N)N)C(N)=O [Dansyl-KAR-amide] (Dansyl-Lys-Ala-Arg-NH2) | −24 a.u. |
| CN(C)c1cccc2c(S(=O)(=O)N[C@@H](CCCCN)C(=O)N[C@@H](CC(=O)O)C(=O)N[C@@H](CCCNC(=N)N)C(N)=O)cccc12 [Dansyl-KDR-amide] (Dansyl-Lys-Asp-Arg-NH2) | 7 a.u. |
| CN(C)c1cccc2c(S(=O)(=O)N[C@@H](CCCCN)C(=O)N[C@@H](CCC(=O)O)C(=O)N[C@@H](CCCNC(=N)N)C(N)=O)cccc12 [Dansyl-KER-amide] (Dansyl-Lys-Glu-Arg-NH2) | 25 a.u. |
| CN(C)c1cccc2c(S(=O)(=O)N[C@@H](CCCCN)C(=O)N[C@@H](Cc3ccccc3)C(=O)N[C@@H](CCCNC(=N)N)C(N)=O)cccc12 [Dansyl-KFR-amide] (Dansyl-Lys-Phe-Arg-NH2) | 23 a.u. |
| CN(C)c1cccc2c(S(=O)(=O)N[C@@H](CCCCN)C(=O)NCC(=O)N[C@@H](CCCNC(=N)N)C(N)=O)cccc12 [Dansyl-KGR-amide] (Dansyl-Lys-Gly-Arg-NH2) | 30 a.u. |
| CN(C)c1cccc2c(S(=O)(=O)N[C@@H](CCCCN)C(=O)N[C@@H](Cc3c[nH]cn3)C(=O)N[C@@H](CCCNC(=N)N)C(N)=O)cccc12 [Dansyl-KHR-amide] (Dansyl-Lys-His-Arg-NH2) | 19 a.u. |
| CCC(C)C(NC(=O)C(CCCCN)NS(=O)(=O)c1cccc2c(N(C)C)cccc12)C(=O)NC(CCCNC(=N)N)C(N)=O (stereo not drawn) [Dansyl-KIR-amide] (Dansyl-Lys-Ile-Arg-NH2; configuration not given here) | 31 a.u. |
| CN(C)c1cccc2c(S(=O)(=O)N[C@@H](CCCCN)C(=O)N[C@@H](CCCCN)C(=O)N[C@@H](CCCNC(=N)N)C(N)=O)cccc12 [Dansyl-KKR-amide] (Dansyl-Lys-Lys-Arg-NH2) | 22 a.u. |
| CC(C)CC(NC(=O)[C@H](CCCCN)NS(=O)(=O)c1cccc2c(N(C)C)cccc12)C(=O)N[C@@H](CCCNC(=N)N)C(N)=O (stereo partly shown) [Dansyl-KLR-amide] (Dansyl-Lys-[ξL]-Arg-NH2) | 16 a.u. |
| CSCC[C@H](NC(=O)[C@H](CCCCN)NS(=O)(=O)c1cccc2c(N(C)C)cccc12)C(=O)N[C@@H](CCCNC(=N)N)C(N)=O [Dansyl-KMR-amide] (Dansyl-Lys-Met-Arg-NH2) | 25 a.u. |
| CN(C)c1cccc2c(S(=O)(=O)N[C@@H](CCCCN)C(=O)N[C@@H](CC(N)=O)C(=O)N[C@@H](CCCNC(=N)N)C(N)=O)cccc12 [Dansyl-KNR-amide] (Dansyl-Lys-Asn-Arg-NH2) | 26 a.u. |
| CN(C)c1cccc2c(S(=O)(=O)N[C@@H](CCCCN)C(=O)N3CCC[C@H]3C(=O)N[C@@H](CCCNC(=N)N)C(N)=O)cccc12 [Dansyl-KPR-amide] (Dansyl-Lys-Pro-Arg-NH2) | 28 a.u. |
| CN(C)c1cccc2c(S(=O)(=O)N[C@@H](CCCCN)C(=O)N[C@@H](CCC(N)=O)C(=O)N[C@@H](CCCNC(=N)N)C(N)=O)cccc12 [Dansyl-KQR-amide] (Dansyl-Lys-Gln-Arg-NH2) | 38 a.u. |
| CN(C)c1cccc2c(S(=O)(=O)N[C@@H](CCCCN)C(=O)N[C@@H](CCCNC(=N)N)C(=O)N[C@@H](CCCNC(=N)N)C(N)=O)cccc12 [Dansyl-KRR-amide] (Dansyl-Lys-Arg-Arg-NH2) | 23 a.u. |
| CN(C)c1cccc2c(S(=O)(=O)N[C@@H](CCCCN)C(=O)N[C@@H](CO)C(=O)N[C@@H](CCCNC(=N)N)C(N)=O)cccc12 [Dansyl-KSR-amide] (Dansyl-Lys-Ser-Arg-NH2) | 45 a.u. |
| C[C@@H](O)[C@H](NC(=O)[C@H](CCCCN)NS(=O)(=O)c1cccc2c(N(C)C)cccc12)C(=O)N[C@@H](CCCNC(=N)N)C(N)=O [Dansyl-KTR-amide] (Dansyl-Lys-Thr-Arg-NH2) | 30 a.u. |
| CC(C)[C@H](NC(=O)[C@H](CCCCN)NS(=O)(=O)c1cccc2c(N(C)C)cccc12)C(=O)N[C@@H](CCCNC(=N)N)C(N)=O [Dansyl-KVR-amide] (Dansyl-Lys-Val-Arg-NH2) | 20 a.u. |
| CN(C)c1cccc2c(S(=O)(=O)N[C@@H](CCCCN)C(=O)N[C@@H](Cc3c[nH]c4ccccc34)C(=O)N[C@@H](CCCNC(=N)N)C(N)=O)cccc12 [Dansyl-KWR-amide] (Dansyl-Lys-Trp-Arg-NH2) | 34 a.u. |
| CN(C)c1cccc2c(S(=O)(=O)N[C@@H](CCCCN)C(=O)N[C@@H](Cc3ccc(O)cc3)C(=O)N[C@@H](CCCNC(=N)N)C(N)=O)cccc12 [Dansyl-KYR-amide] (Dansyl-Lys-Tyr-Arg-NH2) | 23 a.u. |
| CC(C)C[C@H](NS(=O)(=O)c1cccc2c(N(C)C)cccc12)C(=O)N[C@@H](C)C(=O)N[C@@H](CCCNC(=N)N)C(N)=O [Dansyl-LAR-amide] (Dansyl-Leu-Ala-Arg-NH2) | −81 a.u. |
| CC(C)C[C@H](NS(=O)(=O)c1cccc2c(N(C)C)cccc12)C(=O)N[C@@H](CC(=O)O)C(=O)N[C@@H](CCCNC(=N)N)C(N)=O [Dansyl-LDR-amide] (Dansyl-Leu-Asp-Arg-NH2) | −50 a.u. |
| CC(C)C[C@H](NS(=O)(=O)c1cccc2c(N(C)C)cccc12)C(=O)N[C@@H](CCC(=O)O)C(=O)N[C@@H](CCCNC(=N)N)C(N)=O [Dansyl-LER-amide] (Dansyl-Leu-Glu-Arg-NH2) | −32 a.u. |
| CC(C)C[C@H](NS(=O)(=O)c1cccc2c(N(C)C)cccc12)C(=O)N[C@@H](Cc1ccccc1)C(=O)N[C@@H](CCCNC(=N)N)C(N)=O [Dansyl-LFR-amide] (Dansyl-Leu-Phe-Arg-NH2) | −33 a.u. |
| CC(C)C[C@H](NS(=O)(=O)c1cccc2c(N(C)C)cccc12)C(=O)NCC(=O)N[C@@H](CCCNC(=N)N)C(N)=O [Dansyl-LGR-amide] (Dansyl-Leu-Gly-Arg-NH2) | −27 a.u. |

Now from value to molecule:

| Relative Binding Index (RBI) | Compound |
| --- | --- |
| −38 a.u. | CC(C)C[C@H](NS(=O)(=O)c1cccc2c(N(C)C)cccc12)C(=O)N[C@@H](Cc1cnc[nH]1)C(=O)N[C@@H](CCCNC(=N)N)C(N)=O [Dansyl-LHR-amide] (Dansyl-Leu-His-Arg-NH2) |
| −26 a.u. | CC[C@H](C)[C@H](NC(=O)[C@H](CC(C)C)NS(=O)(=O)c1cccc2c(N(C)C)cccc12)C(=O)N[C@@H](CCCNC(=N)N)C(N)=O [Dansyl-LIR-amide] (Dansyl-Leu-Ile-Arg-NH2) |
| −34 a.u. | CC(C)C[C@H](NS(=O)(=O)c1cccc2c(N(C)C)cccc12)C(=O)N[C@@H](CCCCN)C(=O)N[C@@H](CCCNC(=N)N)C(N)=O [Dansyl-LKR-amide] (Dansyl-Leu-Lys-Arg-NH2) |
| −40 a.u. | CC(C)C[C@H](NC(=O)[C@H](CC(C)C)NS(=O)(=O)c1cccc2c(N(C)C)cccc12)C(=O)N[C@@H](CCCNC(=N)N)C(N)=O [Dansyl-LLR-amide] |
| −32 a.u. | CSCC[C@H](NC(=O)[C@H](CC(C)C)NS(=O)(=O)c1cccc2c(N(C)C)cccc12)C(=O)N[C@@H](CCCNC(=N)N)C(N)=O [Dansyl-LMR-amide] (Dansyl-Leu-Met-Arg-NH2) |
| −31 a.u. | CC(C)C[C@H](NS(=O)(=O)c1cccc2c(N(C)C)cccc12)C(=O)N[C@@H](CC(N)=O)C(=O)N[C@@H](CCCNC(=N)N)C(N)=O [Dansyl-LNR-amide] (Dansyl-Leu-Asn-Arg-NH2) |
| −29 a.u. | CC(C)C[C@H](NS(=O)(=O)c1cccc2c(N(C)C)cccc12)C(=O)N1CCC[C@H]1C(=O)N[C@@H](CCCNC(=N)N)C(N)=O [Dansyl-LPR-amide] (Dansyl-Leu-Pro-Arg-NH2) |
| −18 a.u. | CC(C)C[C@H](NS(=O)(=O)c1cccc2c(N(C)C)cccc12)C(=O)N[C@@H](CCC(N)=O)C(=O)N[C@@H](CCCNC(=N)N)C(N)=O [Dansyl-LQR-amide] (Dansyl-Leu-Gln-Arg-NH2) |
| −33 a.u. | CC(C)C[C@H](NS(=O)(=O)c1cccc2c(N(C)C)cccc12)C(=O)N[C@@H](CCCNC(=N)N)C(=O)N[C@@H](CCCNC(=N)N)C(N)=O [Dansyl-LRR-amide] (Dansyl-Leu-Arg-Arg-NH2) |
| −11 a.u. | CC(C)C[C@H](NS(=O)(=O)c1cccc2c(N(C)C)cccc12)C(=O)N[C@@H](CO)C(=O)N[C@@H](CCCNC(=N)N)C(N)=O [Dansyl-LSR-amide] (Dansyl-Leu-Ser-Arg-NH2) |
| −26 a.u. | CC(C)C[C@H](NS(=O)(=O)c1cccc2c(N(C)C)cccc12)C(=O)N[C@H](C(=O)N[C@@H](CCCNC(=N)N)C(N)=O)[C@@H](C)O [Dansyl-LTR-amide] (Dansyl-Leu-Thr-Arg-NH2) |
| −37 a.u. | CC(C)C[C@H](NS(=O)(=O)c1cccc2c(N(C)C)cccc12)C(=O)N[C@H](C(=O)N[C@@H](CCCNC(=N)N)C(N)=O)C(C)C [Dansyl-LVR-amide] (Dansyl-Leu-Val-Arg-NH2) |
